The values that follow come from patent US9018173B2, “Materials and methods for suppressing inflammatory and neuropathic pain” (Indiana University Research and Technology Corp., priority 2010, dated 2015).

A short description of data set [1]: Biodistribution after i.p. injection (dot blot, FITC fluorescence). The settings on record: 25 mg/kg i.p.
The test system of data set [2] is anxiety-associated behavior. Put plainly: Light-Dark Box test (LDBT). The format is in vivo, C57BL6 mice. The protocol:
The light-dark box test and the elevated plus maze were used as measures of anxiety-associated behaviors. The tail suspension test was performed to evaluate despair- and depression-associated behavior. Anxiety-behavior testing Anxiety occurs when there is conflict between risk and reward. The Light-Dark Box test (LDBT) and the elevated plus maze (EPM) are accepted tests of anxiety-associated behavior that assess the conflict mice have against hiding in enclosed dark areas (i.e., dark box or closed arm) and their tendency to explore novel environments (i.e., white box or open arm). Lalonde, R. & Strazielle, C. […] J. Neurosci. Methods. 171, 48-52 (2008). These tests are also sensitive to anxiolytic drug treatments. Light-Dark Box test as a measure of anxiety-associated behavior. For the light-dark box test (LDBT), there were two adjoined light and dark compartments boxes with a 7 cm square opening to allow mice to move between them. The black box was covered (20 cm×40 cm×30 cm height) and the white box (20 cm×40 cm×30 cm height) was open and illuminated (40 W). Each mouse was placed into the white compartment and the white compartment was video recorded for later analyses using ANY-maze software (version 4.75, Stoelting, Wood Dale, Ill.) which is a video tracking system designed to automate testing in behavioral experiments. The main parameters were duration of time spent in the light box; the latency to enter the dark box; and the number of transitions between the light and dark box.

The test system of data set [3] is anxiety-associated behavior. Put plainly: Elevated plus maze (EPM). The format is in vivo, C57BL6 mice.
Data set [4] relates to depression/despair-associated behavior. In words: Tail suspension test (TST). The data set is classed as in vivo, C57BL6 mice. As to the method: The light-dark box test and the elevated plus maze were used as measures of anxiety-associated behaviors. The tail suspension test was performed to evaluate despair- and depression-associated behavior.
Depression/Despair-behavior testing. Since rodents such as mice and rats display immobile postures when placed in inescapable stressful situations, immobility behavior in the tail suspension test (TST) or forced swim test (FST) is used as a measure of “depression” or “despair”-associated behavior. Furthermore, administering antidepressant treatments prior to testing reduces immobility behavior. Therefore TST and FST are often used to screen novel drugs for depressant or anti-depressant properties.
Tail suspension test as a measure of depression-associated behavior. Immediately following the EPM test, the TST was conducted according to standard procedure between 8:00 AM and 2:00 PM. Cryan, J. F., Mombereau, C., & Vassout, A. The tail suspension test as a model for assessing antidepressant activity: review of pharmacological and genetic studies in mice. Neurosci. Biobehay. Rev. 29, 571-625 (2005). Briefly, each mouse was suspended by the tail at a height of 40 cm by taping the rail to a horizontal bar so that the tail is vertical to the bar. Behavior was video recorded for 5 min and later analyzed by an experimenter, whom was blind to the treatments. […] If a mouse climbed its tail the mouse was gently pulled back down and the trial continued. Mice that climbed their tails for more than 20% of the trial (i.e. >60 seconds) were eliminated from the final analysis. Duration and frequency of immobility was the main parameters measured. Mice injected with the scrambled control peptide were immobile approximately 26% of the TST duration which is equivalent to baseline immobility durations (approximately 27%) observed in C57B16 mice in another recent study.

Data set [5] concerns capsaicin-induced meningeal blood flow changes.
[6] abbreviates: C57BL6 mice, 10 mg/kg i.p., 1 h after injection, 5 min test.

Residues, ends and D or L forms follow the SMILES beside them. No end group written: not given here.

As for `CC[C@H](C)[C@H](NC(=O)[C@@H](NC(=O)[C@H](CC(C)C)NC(=O)[C@H](C)NC(=O)[C@H](CCC(=O)O)NC(=O)[C@H](Cc1ccccc1)NC(=O)[C@H](Cc1ccc(O)cc1)NC(=O)[C@H](CC(C)C)NC(=O)[C@H](CCSC)NC(=O)[C@H](CCC(=O)O)NC(=O)[C@H](CCCCN)NC(=O)[C@H](C)NC(=O)[C@H](CCC(=O)O)NC(=O)[C@H](Cc1c[nH]c2ccccc12)NC(=O)[C@H](CCCNC(=N)N)NC(=O)[C@H](CCCNC(=N)N)NC(=O)[C@H](CCCNC(=N)N)NC(=O)[C@H](CCC(N)=O)NC(=O)[C@H](CCCNC(=N)N)NC(=O)[C@H](CCCNC(=N)N)NC(=O)[C@H](CCCCN)NC(=O)[C@H](CCCCN)NC(=O)[C@H](CCCNC(=N)N)NC(=O)CNC(=O)[C@@H](N)Cc1ccc(O)cc1)C(C)C)C(=O)N[C@@H](CCC(=O)O)C(=O)O` [TAT-Scramble, reference compound] (H-YGRKKRRQRRRWEAKEMLYFEALVIE-OH; N-terminus and C-terminus assumed), the “tissue distribution (dot blot, anti-TAT antibody)” value in data set [1] (15 min post-injection) is “detected in spleen and largely concentrated in lumbar dorsal root ganglion (DRG) and lumbar section of the spinal cord”. The “tissue distribution (dot blot, anti-TAT antibody)” value in data set [1] (1 h post-injection) is “also detected in kidney, brain, spinal cord and was abundant in the DRG”. In data set [2] (setting [6]), the “Light-Dark Box: Dark box latency to exit” value is recorded as 53.0 ± 11.5 s and the “Light-Dark Box: Light box entries” value is on record as 8.2 ± 0.8. The “LDBT time in the light box” value in data set [2] (mouse, in vivo) is recorded as “approximately 25%”. Further, the “EPM time in the open arm compared to the closed arm” value in data set [3] (10 mg/kg) is recorded as “approximately 30%”. Besides, in data set [3] (setting [6]), the “Elevated Plus Maze: Closed arm entries” value is reported as 16.3 ± 2.0, the “Elevated Plus Maze: Closed arm latency to enter” value is reported as 6.3 ± 2.5 s, the “Elevated Plus Maze: Closed arm latency to exit” value is on record as 14.7 ± 3.0 s and the “Elevated Plus Maze: Open arm entries” value is listed as 11.5 ± 1.6. Besides, in data set [3] (setting [6]), the “Elevated Plus Maze: Open arm latency to enter” value was 5.9 ± 2.3 s and the “Elevated Plus Maze: Open arm latency to exit” value amounted to 14.5 ± 3.1 s. In addition, in data set [4] (setting [6]), the “Tail Suspension Test: Active” value was 221.0 ± 11.3 s. Moreover, the “TST immobility as share of test duration” value in data set [4] (mouse, in vivo) is given as “approximately 26%”.

For “CGRP8-37: CGRP antagonist (VTHRLAGLLSRSGGVVKNNFVPTNVGSKAF; ends and bridges not checked; UniProt P06881 90-119, looked up, fragment)”, the “capsaicin-induced blood flow changes (effect in words)” value in data set [5] (dural application prior to nasal capsaicin 100 nM) is listed as “blocked”. The “capsaicin-induced blood flow change after CGRP antagonist” value in data set [5] (prior topical administration, n=3) is listed as 5±4%.
